From patent US10815222B2, “Compounds for use in the treatment of kinetoplastid infection” (C.N.C.C.S. S.c.a.r.l. COLLEZIONE NAZIONALE DEI COMPOSTI …, priority 2016, dated 2020)
Read-outs that look alike come from different tables or passages of the source.

Legend:
[1] = tested on: HeLa cells; assay: HeLa cytotoxicity assay (CellTiter Glo, 72 h); format: cell-based; conditions: Homo sapiens, read-out: Cell Proliferation Hela IC50
Method: (§1) HeLa cells (ATCC® CCL2™) in DMEM (Dulbecco Modified Eagle's Medium) without phenol red, Thermo, 11880, USA+10% FBS+1× PenStrep+1× Gln or HUVEC cells (ATCC® CRL1730™) in EBM-2 (Endothelial Growth Basal Medium, Lonza, CC3156)+EGM-2 SingleQuotsTMSupplements and Growth Factors (Lonza, CC4176)+1× Penicyllin-Streptomycin (PenStrep, ThermoFisher)+1× Glutamine, are plated in a 384 well plate (Thermo, 4334-11, USA) to a density of 2000 cells per well and let recover for four hours at 37° C., 5% CO2 in a humidified atmosphere. After the recovery, compounds are transferred to assay plates as per compound preparation method. Assay plates are then incubated at 37° C., 5% CO2 in a humidified atmosphere for 72 hours. Cell viability is measured by the CellTiter Glo (Promega, G8080, USA) as per manufacturer instruction.

[2] = tested on: HUVEC cells; assay: HUVEC cytotoxicity assay (CellTiter Glo, 72 h); format: cell-based; conditions: Homo sapiens, read-out: Cell Proliferation HUVEC IC50
Method: as §1

[3] = tested on: Bloodstream form of Trypanosoma brucei, strain Lister 427; assay: Trypanosoma brucei growth inhibition assay (CellTiter-Glo, 24 h); format: cell-based; conditions: Trypanosoma brucei
How it was run: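 Growth read-out was CellTiter-Glo luminescence after 24 h at 37 °C incubation of 1500 bloodstream-form Lister 427 trypanosomes per well with compound, in supplemented IMDM containing 10% FBS and at most 0.25% DMSO.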

[4] = PK studies: plasma exposure and pharmacokinetic parameters after i.v., oral and i.p. administration; format: in vivo, C57BL/6 mice
Method: C57BL/6 mice were used to evaluate plasma exposure and pharmacokinetic parameters after intravenous, oral and intraperitoneal administration (5, 10, 30 mpk). In each animal an indwelling cannula was implanted in the right jugular vein for blood sampling. The surgery was performed under light anaesthesia (Ketamine-Xilazine (85 mg/kg and 2.5 mg/kg respectively i.m.) one day prior the experiment). During the kinetic study, all animals were housed individually in plastic metabolism cages, and were unrestrained throughout the experiment. Compounds (6 mg/mL) were dissolved in PEG400/H2O (50/50). After an overnight fast, the mice (15 animals per experiment) received an i.v. (via caudal vein) or an oral dose of the compound. Blood samples were collected at different times point after dosing. Plasma was separated immediately after blood sampling by centrifugation, and the plasma samples were kept frozen (−20° C.) until assayed by LC/MS/MS.
Analytical procedures: Plasma samples were extracted using Liquid Handling Robot MultiProbe Packard by protein precipitation with acetonitrile. Then the samples were centrifuged (3000 rpm×15 min at 4° C.) and the supernatant transferred and dried under nitrogen. The samples were reconstituted in water/acetonitrile 90/10 and then injected directly into an HPLC column. Sample analyses were performed using a an API 3000 or/and API 2000 or/and API 4000 Mass Spectrometer interfaced via the Turbo Ion Spray (ESI)/APCI to an LC system consisting of an HTS PAL CTC autosampler and an Agilen HP 1100 Binary Pump. The results are calculated using Analyst Software linear regression with 1/x*x weighting. The Assay Precision was calculated for the Quality Controls by Watson Lims database.
Pharmacokinetic Analysis: The plasma clearance (CLp) of the compounds were calculated (using Watson PK program) as the dose divided by the area under the plasma concentration-time curve from time zero to infinity (AUC0-∞). The apparent half-life was estimated from the slope of the terminal phase of the log plasma concentration-time data. The volume of distribution (Vdss) was determined using the following noncompartmental method: Vdss=(Dose IV×AUMC)/(AUC0-∞)2 where AUMC is the total area under the first moment of the drug concentration time curve from time zero to infinity. Bioavailability was estimated as the AUC0-∞ ratio following oral and intravenous administration, normalized for differences in dose.

[5] = T. Brucei Growth Inibition Assay, class symbols, read-out: T. Brucei GI EC50
[6] = Table 3, read-out: T. brucei GI EC50

| SMILES | IC50 [1] | IC50 [2] | EC50 [3, 5] | EC50 [3, 6] | clearance ([4]; C57BL/6, intravenous, 5 mpk, mouse, plasma clearance) | AUC ([4]; C57BL/6, mouse, plasma, oral, 10 mpk) | bioavailability ([4]; C57BL/6, plasma, 10 mg/kg, mouse, 10 mpk, po, single oral dose, read-out: Oral Bioavailability F %) | i.p. max brain concentration ([4]; mouse, after intraperitoneal injection (30 mpk), brain) | EC50 ([3]; Table 4, read-out: T. brucei Growth inhibition EC50) | EC90 ([3]; Table 4, read-out: T. brucei Growth inhibition EC90) |
| --- | --- | --- | --- | --- | --- | --- | --- | --- | --- | --- |
| COc1ccc2[nH]c(C)c(CC(=O)N3CCN(C)CC3c3ncc(-c4ccc5ccccc5c4)[nH]3)c2c1 (stereo not shown) [2-(5-methoxy-2-methyl-1H-indol-3-yl)-1-(4-methyl-2-(5-(naphthalen-2-yl)-1H-imidazol-2-yl)piperazin-1-yl)ethan-1-one] | ≥ 25000 nM | 21800 nM | < 100 nM | 39.9 nM |  |  |  |  |  |  |
| CCC(=O)CCCN1CCN(C(=O)Cc2c(C)[nH]c3ccc(OC)cc23)C(c2nnc(-c3ccc4ccccc4c3)o2)C1 (stereo not shown) [6-(4-(2-(5-methoxy-2-methyl-1H-indol-3-yl)acetyl)-3-(5-(naphthalen-2-yl)-1,3,4-oxadiazol-2-yl)piperazin-1-yl)hexan-3-one] | ≥ 25000 nM | ≥ 25000 nM | 100 to 500 nM | 350 nM |  |  |  |  |  |  |
| CCC(=O)CCCN1CCN(C(=O)Cc2c(C)[nH]c3ccc(OC)cc23)C(c2ncc(-c3cc4ccccc4nc3OC)[nH]2)C1 (stereo not shown) [6-(4-(2-(5-methoxy-2-methyl-1H-indol-3-yl)acetyl)-3-(5-(2-methoxyquinolin-3-yl)-1H-imidazol-2-yl)piperazin-1-yl)hexan-3-one] | ≥ 25000 nM | 21400 nM | < 100 nM | 34.2 nM |  |  |  |  |  |  |
| CCC(=O)CCCN1CCN(C(=O)Cc2c(C)[nH]c3ccc(OC)cc23)C(c2ncc(-c3ccc4ccccc4c3)[nH]2)C1 (stereo not shown) [6-(4-(2-(5-methoxy-2-methyl-1H-indol-3-yl)acetyl)-3-(5-(naphthalen-2-yl)-1H-imidazol-2-yl)piperazin-1-yl)hexan-3-one] | 12300 nM | ≥ 25000 nM | < 100 nM | 9.92 nM |  |  |  |  |  |  |
| COc1nc2ccccc2cc1-c1cnc(C2CN(CC3CCOC3)CCN2C(=O)Cc2c(C)[nH]c3ccc(F)cc23)[nH]1 (stereo not shown) [2-(5-fluoro-2-methyl-1H-indol-3-yl)-1-(2-(5-(2-methoxyquinolin-3-yl)-1H-imidazol-2-yl)-4-((tetrahydrofuran-3-yl)methyl)piperazin-1-yl)ethan-1-one] | 18700 nM | 9630 nM | < 100 nM | 35.1 nM |  |  |  |  |  |  |
| COc1nc2ccccc2cc1-c1cnc(C2CN(Cc3nccs3)CCN2C(=O)Cc2c(C)[nH]c3ccc(F)cc23)[nH]1 (stereo not shown) [2-(5-fluoro-2-methyl-1H-indol-3-yl)-1-(2-(5-(2-methoxyquinolin-3-yl)-1H-imidazol-2-yl)-4-(thiazol-2-ylmethyl)piperazin-1-yl)ethan-1-one] | ≥ 25000 nM | 8200 nM | < 100 nM | 60.6 nM |  |  |  |  |  |  |
| CCC(O)CCCN1CCN(C(=O)Cc2c(C)[nH]c3ccc(OC)cc23)C(c2ncc(-c3ccc4ccccc4c3)[nH]2)C1 (stereo not shown) [1-(4-(4-hydroxyhexyl)-2-(5-(naphthalen-2-yl)-1H-imidazol-2-yl)piperazin-1-yl)-2-(5-methoxy-2-methyl-1H-indol-3-yl)ethan-1-one] | 13100 nM | 9270 nM | < 100 nM | 13 nM |  |  |  |  |  |  |
| COc1nc2ccccc2cc1-c1cnc(C2CN(CC3CCOC3)CCN2C(=O)Cn2c(C(F)(F)F)nc3ccccc32)[nH]1 (stereo not shown) [1-(2-(5-(2-methoxyquinolin-3-yl)-1H-imidazol-2-yl)-4-((tetrahydrofuran-3-yl)methyl)piperazin-1-yl)-2-(2-(trifluoromethyl)-1H-benzo[d]imidazol-1-yl)ethan-1-one] | 21500 nM | 14100 nM | < 100 nM | 29.9 nM | 44.7 mL/min/kg | 4.6 µM·h | 78% | 190 nM | 30 nM | 287 nM |
| COc1ccc2[nH]c(C)c(CC(=O)N3CCN(CC4CCOC4)CC3c3ncc(-c4ccc5ccccc5c4)[nH]3)c2c1 (stereo not shown) [2-(5-methoxy-2-methyl-1H-indol-3-yl)-1-(2-(5-(naphthalen-2-yl)-1H-imidazol-2-yl)-4-((tetrahydrofuran-3-yl)methyl)piperazin-1-yl)ethan-1-one] | ≥ 25000 nM | 18700 nM | < 100 nM | 4.72 nM |  |  |  |  |  |  |
| COc1ccc2[nH]c(C)c(CC(=O)N3CCN(CC4CCOC4)CC3c3ncc(-c4cc5ccccc5nc4OC)[nH]3)c2c1 (stereo not shown) [2-(5-methoxy-2-methyl-1H-indol-3-yl)-1-(2-(5-(2-methoxyquinolin-3-yl)-1H-imidazol-2-yl)-4-((tetrahydrofuran-3-yl)methyl)piperazin-1-yl)ethan-1-one] | ≥ 25000 nM | 23200 nM | < 100 nM | 22.9 nM |  |  |  |  |  |  |
